Reference: publication PMC9917360, “Novel 1,4-Dihydropyridine Derivatives as Mineralocorticoid Receptor Antagonists” (International Journal of Molecular Sciences, 2023)

Assays:
[1] = target: T1, human MR (hMR) (Homo sapiens, UniProt P08235); assay: [3H]-aldosterone displacement from human MR, ligand-receptor binding assay in transfected COS-7 cells; settings: 1 nM [3H]-aldosterone, increasing concentrations of unlabeled ligand, one-site model
T1 construct: expressed in transfected cells; host or cells: COS-7
T1 sequence (P08235 1-984): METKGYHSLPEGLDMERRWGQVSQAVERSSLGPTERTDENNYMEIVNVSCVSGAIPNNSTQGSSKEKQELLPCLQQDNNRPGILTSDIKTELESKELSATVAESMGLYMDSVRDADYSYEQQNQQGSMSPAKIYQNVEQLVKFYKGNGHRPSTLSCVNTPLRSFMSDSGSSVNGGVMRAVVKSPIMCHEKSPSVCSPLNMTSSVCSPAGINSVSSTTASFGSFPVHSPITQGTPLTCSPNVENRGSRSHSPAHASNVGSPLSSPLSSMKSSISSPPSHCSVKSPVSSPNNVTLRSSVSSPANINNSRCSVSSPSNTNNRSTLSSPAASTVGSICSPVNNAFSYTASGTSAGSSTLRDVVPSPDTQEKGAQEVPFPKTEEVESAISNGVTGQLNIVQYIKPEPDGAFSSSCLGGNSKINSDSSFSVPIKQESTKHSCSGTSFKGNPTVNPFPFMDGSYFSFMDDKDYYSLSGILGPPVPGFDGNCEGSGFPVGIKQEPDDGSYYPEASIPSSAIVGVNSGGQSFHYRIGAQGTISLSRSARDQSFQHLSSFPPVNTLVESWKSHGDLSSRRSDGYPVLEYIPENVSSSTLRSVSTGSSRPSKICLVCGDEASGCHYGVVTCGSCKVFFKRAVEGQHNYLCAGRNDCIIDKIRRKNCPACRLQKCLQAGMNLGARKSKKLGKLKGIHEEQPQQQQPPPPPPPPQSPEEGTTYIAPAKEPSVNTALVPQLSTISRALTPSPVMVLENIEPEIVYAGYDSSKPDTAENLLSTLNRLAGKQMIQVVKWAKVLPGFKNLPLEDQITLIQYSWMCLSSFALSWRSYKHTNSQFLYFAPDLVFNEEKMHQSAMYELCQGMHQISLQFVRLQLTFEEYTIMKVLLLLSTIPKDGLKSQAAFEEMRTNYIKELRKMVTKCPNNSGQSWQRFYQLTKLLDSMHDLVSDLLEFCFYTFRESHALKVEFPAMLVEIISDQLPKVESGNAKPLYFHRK
Method: Ligand-receptor binding assays were performed as described before. Briefly, COS-7 cells were seeded on 24-well plates and transfected with plasmid pcDNA3-hMR. Twenty-four hours after transfection, cells were washed once with serum-free DMEM and incubated for 2 h in 500 μL of the same medium containing the indicated concentration of each compound. After this initial period, cells were further incubated with the indicated compounds and 1 × 10^−9 M [^3H]-aldosterone (PerkinElmer Life Sciences, Waltham, MA, USA) for one additional hour. Cells were then washed twice with phosphate-buffered saline (PBS: 137 mM NaCl, 2,7 mM KCl, 10 mM Na2HPO4, 1.8 mM KH2PO4, pH 7.4) and then extracted with 200 μL of an ethanol:water mix (4:1, v:v). Disintegrations were recorded using liquid scintillation in a β counter. Control conditions included non-transfected cells, transfected cells treated with unlabeled aldosterone or transfected cells, treated with 1 nM [^3H]-aldosterone in the presence of 1 × 10^−5 M unlabeled aldosterone. Specific binding was determined by subtracting the number of disintegrations per minute (dpm) in the presence of 1 × 10^−5 M unlabeled aldosterone from the condition with 1 nM [^3H]-aldosterone. Each condition was performed in triplicate. Competition of each compound for 1 nM [^3H]-aldosterone binding was calculated as the percentage of the maximum binding obtained in the absence of compound.

[2] = target: T2, human AR (Homo sapiens, UniProt P10275); assay: AR reporter gene transactivation assay in COS-7 cells; format: cell-based; settings: 5 μM derivative, stimulation by 10 nM testosterone
T2 construct: Plasmid pCMV-FLAG-hAR, expressing full-length human AR; host or cells: COS-7
T2 sequence (P10275 1-920): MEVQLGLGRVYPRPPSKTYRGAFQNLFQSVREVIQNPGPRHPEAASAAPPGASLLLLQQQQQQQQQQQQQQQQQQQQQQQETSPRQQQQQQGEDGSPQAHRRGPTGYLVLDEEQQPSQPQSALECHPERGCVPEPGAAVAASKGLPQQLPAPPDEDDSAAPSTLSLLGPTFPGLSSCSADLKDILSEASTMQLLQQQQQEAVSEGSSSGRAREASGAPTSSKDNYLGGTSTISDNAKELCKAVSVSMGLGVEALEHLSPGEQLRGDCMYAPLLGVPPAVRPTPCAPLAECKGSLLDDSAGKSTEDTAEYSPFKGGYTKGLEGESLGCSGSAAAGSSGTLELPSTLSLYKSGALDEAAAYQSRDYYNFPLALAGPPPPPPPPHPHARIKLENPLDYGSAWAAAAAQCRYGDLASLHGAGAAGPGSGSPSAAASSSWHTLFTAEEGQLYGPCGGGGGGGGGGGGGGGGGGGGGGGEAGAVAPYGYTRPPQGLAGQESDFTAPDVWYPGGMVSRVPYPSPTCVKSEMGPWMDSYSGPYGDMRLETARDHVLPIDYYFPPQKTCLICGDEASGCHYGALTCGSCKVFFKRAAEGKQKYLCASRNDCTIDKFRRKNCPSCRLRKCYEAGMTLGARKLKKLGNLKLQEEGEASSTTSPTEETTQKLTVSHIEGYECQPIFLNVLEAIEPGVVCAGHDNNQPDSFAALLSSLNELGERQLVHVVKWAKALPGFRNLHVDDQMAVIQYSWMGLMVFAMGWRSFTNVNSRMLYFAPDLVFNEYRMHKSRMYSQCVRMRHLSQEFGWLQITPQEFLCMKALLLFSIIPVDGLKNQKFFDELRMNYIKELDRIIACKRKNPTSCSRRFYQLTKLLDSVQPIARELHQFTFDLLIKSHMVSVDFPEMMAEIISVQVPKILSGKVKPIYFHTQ
Method: (§1) Receptor transcriptional activity was assessed using a transactivation gene reporter assay, as described. Briefly, COS-7 cells were seeded on 96-well plates in DMEM supplemented with 10% charcoal-stripped FBS (Biowest, Nuaillé, France). Twenty-four hours after seeding, cells were transfected with pcDNA3-hMR, pcDNA3-hGR, or pCMV-FLAG-hAR in combination with pSG5-luc and pSG5-ren in a 5:4:1 proportion, respectively. […] After 2 h of incubation, cells were further treated with agonists (1 × 10^−8 M aldosterone; 1 × 10^−8 M testosterone or 0.5 × 10^−6 M cortisol) in the presence of each compound for 16 h. Assays using hMR included a control condition with 0.25 × 10^−6 M eplerenone. MR maximum and minimum activity were obtained in each assay using conditions with 1 × 10^−9 M aldosterone or vehicle (ethanol). Each condition was performed in three parallel wells. After treatments, firefly and Renilla luciferase activities were measured sequentially in the cell lysates using a commercially available kit (Dual-Glo; Promega, Madison, WI, USA). Receptor transcriptional activity was calculated as the ratio luc/ren. The activities in each condition were normalized to the activity obtained with vehicle or with agonist as indicated in each figure panel and are expressed a as percentage of the maximum value ± SD.

[3] = target: T1, human MR (hMR); assay: MR gene reporter transactivation assay in transiently transfected COS-7 cells; format: cell-based; settings: 1,4-DHP derivative 5 μM, 10 nM aldosterone stimulation
Method: as §1, with “Assays using hMR included a control condition with 0.25 × 10^−6 M eplerenone.” left out

Ki [1]: 262 nM
decrease of AR activation [2]: 15%
MR activity, % of the maximal activity [3]: 57%
SMILES: COC(=O)C1=C(CNC(=O)OCc2ccccc2)NC(C)=C(C#N)C1c1ccc(C#N)cc1OC (stereo not drawn) [Compound 16, Methyl 2-[(benzyloxycarbonyl)amino]methyl-5-cyano-4-(4-cyano-2-methoxy)phenyl-6-methyl-1,4-dihydropyridine-3-carboxylate]
